Patent US8541576B2, “Substituted pyrazolo-quinazoline derivatives as kinase inhibitors” (Nerviano Medical Sciences SRL, priority 2010, dated 2013)

What was measured:
BaF3 parental line = test: In vitro cell proliferation potency assay, BaF3 parental line with IL-3 (Cell Titer Glo); type: cell-based, murine; conditions: Mus musculus; BaF3 parental cells with mIL-3, incubated overnight; read-out: Prolif BaF3 IL3 (EC50)
From the text: (§1) BaF3 is a murine interleukin-3 dependent pro-B cell line, useful as a model system for assessing both the potency and downstream signaling of kinase oncogenes (“Ba/F3 cells and their use in kinase drug discovery”, Warmuth, M, et al, (January 2007) Current Opinion in Oncology, Vol 19(1):55-60). BaF3 parental line was obtained from the DSMZ repository. BaF3 lines transfected with PIM1 or PIM2 were generated. Mouse IL-3 was purchased from R&D Systems. G418 was purchased from Clontech. Media for BaF3 parental line contained RPMI, 10% FBS, 2 mM L-Glutamine, 2 ng/mL mIL-3. Media for BaF3 PIM1 & 2 lines contained RPMI, 10% FBS, 2 mM L-Glutamine, […]. Media for MM1.S (multiple myeloma cells) line contained RPMI, 10% FBS, 2 mM L-Glutamine.
(§2) Parental cells, BaF3 PIM1 cells, BaF3 PIM2 cells, and MM1.S (multiple myeloma) cells were seeded at 2 k/well, 5 k/well, 5 k/well, and 10 k/well respectively, in a 384-well plate, at 45 μL/well. Test compound was added at 5 μL/well. BaF3 cells (parental and transfected) were incubated overnight, while MM1.S cells were incubated for 72 hours at 37° C., 5% CO2. CELL TITER GLO® Reagent (Promega) was added at 50 μL/well, the plates were incubated for 30 minutes, and their luminescence read on an HT Analyst. IC50/EC50 values for the test compound were calculated.

[1] = test system: MV-4-11 (biphenotypic B myelomonocytic leukemia) cells; test: In vitro cell proliferation assay (CellTiter-Glo); type: cell-based; conditions: Homo sapiens, MV4-11, antiproliferative activity, 72 hours
Experimental: In Vitro Cell Proliferation Assay:
MV-4-11 (biphenotypic B myelomonocytic leukemia) cells (1250 cells/well) were seeded in white 384 well-plates in complete medium (RPMI 1640 or EMEM plus 10% Fetal bovine serum) and treated with compounds dissolved in 0.1% DMSO, 24 h after seeding. The cells were incubated at 37° C. and 5% CO2 and after 72 hours the plates were processed using CellTiter-Glo® assay (Promega) following the manufacturer's instruction. CellTiter-Glo® is a homogenous method based on the quantification of the ATP present, an indicator of metabolically active cells. ATP is quantified using a system based on luciferase and D-luciferin resulting into light generation. The luminescent signal is proportional to the number of cells present in culture.
Briefly 25 μl/well reagent solution was added to each wells and after 5 minutes shacking microplates were red by Envision® (PerkinElmer) luminometer. The luminescent signal was proportional to the number of cells present in culture.
Inhibitory activity was evaluated comparing treated versus control data using Assay Explorer (MDL) program. IC50 was calculated using sigmoidal interpolation curve.

BaF3 PIM1 cells = test: In vitro cell proliferation potency assay, BaF3 transfected with PIM1 (Cell Titer Glo); type: cell-based, murine; conditions: Mus musculus, incubated overnight, read-out: Prolif BaF3 PIM1 (EC50)
From the text: as §1, §2

Full-length human PIM-1 = target: T1, Full-length human PIM-1 (Homo sapiens, UniProt P11309); test: Biochemical assay for inhibitors of PIM-1 kinase activity (trans-phosphorylation, Dowex resin, 33P-ATP); conditions: ATP 200 μM, enzyme 1 nM, Aktide 25 μM
T1 construct: Full-length human PIM-1 was expressed and purified; made in house
Experimental: Biochemical assay for inhibitors of PIM-1 kinase activity
The inhibitory activity of putative kinase inhibitors and the potency of selected compounds were determined using a trans-phosphorylation assay.
Specific peptide or protein substrates are trans-phosphorylated by their specific ser-thr or tyr kinase in the presence of ATP traced with ^33P-γ-ATP, and in the presence of their own optimal buffer and cofactors.
At the end of the phosphorylation reaction, more than 98% unlabeled ATP and radioactive ATP is captured by an excess of the ion exchange Dowex® resin; the resin then settles down to the bottom of the reaction plate by gravity.
Supernatant is subsequently withdrawn and transferred into a counting plate, then evaluated by β-counting.
The buffer for PIM-1 assay was composed of HEPES 50 mM, at pH 7.5, with 10 mM MgCl2, 1 mM DTT, 3 μM NaVO3, and 0.2 mg/ml BSA
Full-length human PIM-1 was expressed and purified as described in Bullock A N, et al., J. Biol. Chem. 2005, 280, 41675-82.
1.7 μM PIM1 was incubated 1 hour RT at 28° C. in the presence of 125 μM ATP
ATP concentration: 200 μM
Enzyme concentration: 1 nM
Substrate concentration Aktide (Chemical Abstract Service Registry Number 324029-01-8): 25 μM
The test mix consisted of:
1) 3× Enzyme mix (done in Kinase Buffer 3×), 5 μL/well
2) 3× substrate and ATP mix (done in ddH2O), together with ^33P-γ-ATP, 5 μL/well
3) 3× test compounds (diluted into ddH2O—3% DMSO)-5 μL/well
For IC50 determination, test compounds are received as a 1 mM solution in 100% DMSO and distributed into 96-well plates: compounds are then plated into the first column of a new 96-well plate (A1 to G1), 100 μl/well.
An automated station (Biomek FX®, Beckman) is used for serial dilutions, producing 1:3 dilutions in 100% DMSO, from line A1 to A10, for all the compounds in the column. Moreover, 4-5 copies of daughter plates are prepared by reformatting 5 μL of this first set of 100% DMSO dilution plates into 384-deep well plates: one copy of these serial dilution plates with the test compounds is thawed on the day of study, reconstituted at the working concentration (3-fold the final concentration) with 162 μL/well of water and used for IC50 determination assays. In a standard experiment, the highest concentration (3×) of compounds is typically 30 μM, while the lowest one is typically 1.5 nM.
Each 384-well plate generates at least one curve of the standard inhibitor staurosporine and reference wells (total enzyme activity vs. no enzymatic activity) for evaluation of Z′ and signal to background (S/B) ratio.
384-well plates, V bottom (test plates) are prepared with 5 μl of compound diluted as previously described (3×) and then placed onto a PlateTrak® 12 robotized station (Perkin Elmer; the robot has one 384-tip pipetting head for assay start, plus one 96-tip head for dispensing resin) together with one reservoir for Enzyme mix (3×) and one for ATP mix (3×).
Data are analyzed by an internally customized version of the “Assay Explorer®” SW package, which provides sigmoidal fitting of the ten-dilution curves for IC50 determination in secondary assay/hit confirmation routines.

Full-length human PIM-2 = target: T2, Full-length human PIM-2 (Homo sapiens, UniProt Q9P1W9); test: PIM-2 kinase inhibition assay: Dowex technique; type: biochemical; conditions: ATP 4 μM, enzyme 1.5 nM, Aktide 5 μM
T2 construct: Full-length human PIM-2 was expressed and purified; made in house
Experimental: Method for PIM-2 Kinase Inhibition Assay: Dowex Technique
The buffer for PIM-2 assay was composed of HEPES 50 mM, at pH 7.5, with 1 mM MgCl2, 1 mM DTT, 3 μM Na3VO4, and 0.2 mg/ml BSA
Full-length human PIM-2 was expressed and purified as described in Fedorov O, et al. (2007) PNAS 104, 51, 20523-28.
Assay Conditions (Final Concentrations):
Enzyme concentration=1.5 nM
Aktide substrate (Chemical Abstract Service Registry Number 324029-01-8)=5 μM
See above: same procedure as described for PIM-1.

[2] = test system: phosphorylation of BAD at Ser112 by PIM kinases; test: Western blot of phospho-BAD (Ser112) in MV-4-11 cells; type: cell-based, human; conditions: different concentrations, 3 hours, compared to DMSO treated cells, FIG. 2
Experimental: To further establish that the cytotoxicity of the compounds of the present invention resulted from the inhibition of PIM kinases, we examined the phosphorylation of the pro-apoptotic protein BAD by PIM kinases in the presence or absence of PIM inhibitors in MV-4-11 leukemia cell lines.
MV-4-11 cells were plated in 6 well plates at 1.5×10^6 cells/ml and treated with different concentrations of PIM-inhibitors for 3 hours. Cells were harvested, washed with PBS buffer and lysed with lysis buffer (2% SDS, 100 mM Tris ph 7.5, 1:100 Phosphatase Inhibitor Cocktail 1 (SIGMA) and 1:100 Phosphatase Inhibitor Cocktail 2(SIGMA) and Complete Protease Inhibitor (Roche). The protein concentration in the lysates was quantified using the BCA Protein Assay Kit (Pierce). Equal amounts of protein were loaded onto 4-12% gradient Tri-glycine gel for SDS-PAGE analysis. Then the proteins were transferred to PVDF membranes (Millipore) for Western Blotting. Membranes were probed with the antibody for phospho-Bad (Ser112) (Cell Signaling Technologies).

T2 sequence (Q9P1W9 whole entry): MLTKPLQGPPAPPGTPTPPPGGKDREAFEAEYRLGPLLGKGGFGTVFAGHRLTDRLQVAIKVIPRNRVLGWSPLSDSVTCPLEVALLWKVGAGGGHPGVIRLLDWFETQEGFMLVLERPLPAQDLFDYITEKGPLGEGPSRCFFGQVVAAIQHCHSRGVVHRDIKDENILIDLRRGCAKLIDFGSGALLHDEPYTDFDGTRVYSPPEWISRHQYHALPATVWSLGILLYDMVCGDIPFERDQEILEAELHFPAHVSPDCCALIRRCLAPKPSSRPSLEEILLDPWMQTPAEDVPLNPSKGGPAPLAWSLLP
T1 sequence (P11309 whole entry): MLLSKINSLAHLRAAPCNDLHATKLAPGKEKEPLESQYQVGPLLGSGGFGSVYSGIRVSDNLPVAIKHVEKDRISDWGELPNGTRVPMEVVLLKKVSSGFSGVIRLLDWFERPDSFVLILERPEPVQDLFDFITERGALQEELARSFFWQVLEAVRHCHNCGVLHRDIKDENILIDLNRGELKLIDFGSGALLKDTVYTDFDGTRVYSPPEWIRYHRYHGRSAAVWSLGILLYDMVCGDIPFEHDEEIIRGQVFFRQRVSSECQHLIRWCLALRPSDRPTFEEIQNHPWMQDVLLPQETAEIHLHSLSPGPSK

SMILES | EC50 (BaF3 parental line) | IC50 [1] | EC50 (BaF3 PIM1 cells) | IC50 (Full-length human PIM-1) | IC50 (Full-length human PIM-2) | levels of pBAD (s112) by western blot [2]
CN1CCN(c2ccc(Oc3ncc4ccc5c(C(N)=O)nn(C(C)(C)C)c5c4n3)cc2)CC1 [Compound 51, 1-tert-butyl-8-[4-(4-methylpiperazin-1-yl)phenoxy]-1H-pyrazolo[4,3-h]quinazoline-3-carboxamide] | 9.3 µM | 0.192 µM | 0.21 µM | 0.004 µM | 0.015 µM | –
CSc1ncc2ccc3c(C(N)=O)nn(C(C)(C)C)c3c2n1 [Compound 85, 1-tert-butyl-8-(methylsulfanyl)-1H-pyrazolo[4,3-h]quinazoline-3-carboxamide] | 13 µM | 0.103 µM | 0.31 µM | 0.001 µM | 0.002 µM | dose dependent reduction
CSc1ncc2ccc3c(C(N)=O)nn(C4CCC(N)CC4)c3c2n1 (centres unmarked) [Compound 93, 1-(4-aminocyclohexyl)-8-(methylsulfanyl)-1H-pyrazolo[4,3-h]quinazoline-3-carboxamide] | 7.9 µM | 0.448 µM | 0.044 µM | 0.001 µM | 0.001 µM | –
CSc1ncc2ccc3c(C(N)=O)nn([C@H]4C[C@H](CO)C4)c3c2n1 [Compound 105, 1-[trans-3-(hydroxymethyl)cyclobutyl]-8-(methylsulfanyl)-1H-pyrazolo[4,3-h]quinazoline-3-carboxamide] | – | 0.0168 µM | – | 0.003 µM | 0.014 µM | –
CSc1ncc2ccc3c(C(N)=O)nn([C@H]4C[C@@H](CO)C4)c3c2n1 [Compound 106, 1-[cis-3-(hydroxymethyl)cyclobutyl]-8-(methylsulfanyl)-1H-pyrazolo[4,3-h]quinazoline-3-carboxamide] | – | 0.021 µM | – | 0.003 µM | 0.013 µM | –
NC(=O)c1nn(C2CCC(N)CC2)c2c1ccc1cnc(-c3ccsc3)nc12 (centres unmarked) [Compound 112, 1-(4-aminocyclohexyl)-8-(thiophen-3-yl)-1H-pyrazolo[4,3-h]quinazoline-3-carboxamide] | 2 µM | – | 1.3 µM | 0.3 µM | 0.043 µM | –
